What was measured:
[1] = tested on: vasospasm and DCI after SAH; settings: cited from earlier work
[2] = tested on: cerebral vasospasm of the middle cerebral artery (MCA) after aneurismal SAH; assay: Transcranial Doppler (TCD) mean blood flow velocity in the MCAs, rescue treatment of one SAH patient; settings: for MCA TCD R/L PRE, right / MCA TCD R/L PRE, left: continuously infused Molsidomine
[3] = tested on: delayed cerebral ischemia (DCI) after aneurismal SAH; assay: Clinical neurological status and outcome (Hunt&Hess, WFNS, GCS, mNIH-SS, mRS) of the SAH patient; settings: for recurrent clinical deteriorations (times observed): despite Nimodipine and Molsidomine infusions, right- and left-sided deficits or coma
[4] = tested on: cerebral arteries / brain perfusion after aneurismal SAH; assay: Radiology (CT, CT-A, CT-P, DSA/arteriography, MRI) of the SAH patient; format: in vivo, human
[5] = 3, 6, and 12 months follow up, continuous Molsidomine plus intraventricular SNP boluses
[6] = Discharge at 38th POD, after Molsidomine + Nimodipine + 7 SNP boluses
[7] = discharge on the 38th day after SAH
[8] = discharge on the 38th day after SAH, Nimodipine + Molsidomine + 7 SNP boluses

COc1ccccc1Oc1c(NS(=O)(=O)c2ccc(C)cn2)nc(-c2ccnc(-c3nnn[nH]3)c2)nc1OCCO [Clazosentan]
outcome despite powerful suppression of (measurable) vasospasms ([1]; Macdonald et al. 2007): does not lead to an improved outcome

CCOC(=O)[N-]c1c[n+](N2CCOCC2)no1 [Molsidomine, N-ethoxycarbonyl-3-morpholinosydnonimine]
clinical outcome and cerebral infarction ([1]; SAH patients treated with intravenous molsidomine (Ehlert et al., 2015)): significant improvement in clinical outcome and less cerebral infarction
TCD mean flow velocity in the left MCA (LMCA) ([2]; 9th day after SAH at deterioration under Molsidomine, before SNP, 140 cm/sec the day before): 150 cm/s
TCD mean flow velocity in the RMCA ([2]; 9th day after SAH at deterioration under Molsidomine, before SNP, unchanged): 80 cm/s
MCA TCD R/L PRE, right ([2]; POD 9th first episode (R hemiplegia, aphasia), before 1st SNP dose, mean flow): r: 160/ cm/sec
MCA TCD R/L PRE, left ([2]; POD 9th first episode, before 1st SNP dose, mean flow): l: 150 cm/sec
MCA TCD R/L PRE, right ([2]; POD 9th second episode (hemiplegia l, sopor), before 2nd SNP dose): r: 190 cm/sec
MCA TCD R/L PRE, right ([2]; POD 10th 3rd episode (hemiplegia l, sopor), before 3rd SNP dose): r: 170 cm/sec
MCA TCD R/L PRE, right ([2]; POD 17th 4th episode (hemiplegia, hemiparesis, sopor, intubation), before 4th SNP dose): R: 170 cm/sec
MCA TCD R/L PRE, left ([2]; POD 17th 4th episode, before 4th SNP dose): L: 120 cm/sec
MCA TCD R/L PRE, right ([2]; POD 18 6th episode (still intubated), before 6th SNP dose): R: 160 cm/sec
MCA TCD R/L PRE, left ([2]; POD 18 6th episode, before 6th SNP dose): L: 110 cm/sec
MCA TCD R/L PRE, right ([2]; POD 22 7th episode (sudden loss of vigilance), before 7th SNP dose): R: 180 cm/sec
MCA TCD R/L PRE, left ([2]; POD 22 7th episode, before 7th SNP dose): L: 140 cm/sec
MCA TCD R/L (values) ([2]; POD 23-38, tapering of Molsidomine and Nimodipine, after 7 SNP boluses): Normal
mean blood flow velocities in both MCAs ([2]; intravenous Molsidomine at the full dose (16 mg/hr), with Nimodipine): ≤ 160 cm/s
cognitive deficit [3, 5]: did not have any cognitive deficit
mNIH-SS [3, 5]: 0
mRS [3, 5]: 0
RESULT: cognitive skills [3, 6]: full cognitive
RESULT: mNIH-SS [3, 6]: mNIH-SS: 0
RESULT: mRS [3, 6]: mRS: 0
clinical stabilization (Hunt&Hess grade I, WFNS I) ([3]; Molsidomine given after failure of standard therapy, before vasospasm and DCI progressed): clinical stabilization had been achieved for a week
recurrent clinical deteriorations (times observed) [3]: 7 times
Hunt&Hess grade [3, 7]: 0
cognitive deficit [3, 7]: without cognitive deficit
mNIH-SS grade [3, 8]: 0
mRS grade [3, 8]: 0
clinical status (HH I, WFNS I) ([3]; intravenous Molsidomine at the full dose, for several days): clinically stable
GCS ([3]; intravenous Molsidomine at the full dose, several days): 14-15
RADIOLOGY pre SNP (CT; CT-A; CT-P) ([4]; POD 17th 4th episode, before 4th SNP dose, during Molsidomine, both sides l > r, CTT prolonged, high grade vasospasm in MCAs and ACA): impaired perfusion
RADIOLOGY MRI: temporal ischemic lesion and gliosis at ventricular drainage site ([4]; POD 23-38, tapering of Molsidomine and Nimodipine): MRI (5): tiny

COCCOC(=O)C1=C(C)NC(C)=C(C(=O)OC(C)C)C1c1cccc([N+](=O)[O-])c1 (stereo not drawn) [Nimodipine]
recurrent clinical deteriorations (times observed) [3]: 7 times
